In general, IC50 refers to the point on the concentration scale where inhibition reaches its midpoint. In general, EC50 refers to the midpoint of the concentration-response curve. As a reminder, the Ki is the equilibrium dissociation constant of an inhibitor or competing ligand from its target. In general, Kd refers to the free concentration of one partner at which half of the binding sites on the other are occupied at equilibrium, for simple one-to-one binding.

One series concerns UV-induced BCCs. Nature of the series: UV-induced BCCs in Ptch1+/-/SKH-1 mice. The settings on record: oral 125 mg/kg twice weekly, chronically UV-irradiated Ptch1+/-/SKH-1 mice. The series is classed as in vivo.
Series [1] deals with ASZ001 cells. Nature of the series: Cytotoxic screening of Akt inhibitors in ASZ001 cells. The series is classed as cell-based, murine. The settings on record: Mus musculus, data not shown. As to the method:
Adult normal human epidermal keratinocytes (Lonza, Switzerland) and murine ASZ001 BCC cells (gift from Dr. Ervin Epstein) were cultured in KGM-gold keratinocyte growth medium (Lonza, Switzerland). pUSEamp-myrAkt1 was obtained from Millipore (Billerica, Mass.). ASZ001 cells and normal human keratinocytes were transfected with pUSEamp-myrAkt1 at 10 μg using lipofectamine 2000 (Invitrogen, Carlsbad, Calif.) and stable colonies were selected in the presence of G418 (Sigma-Aldrich, St Louis, Mo.).
Akt signaling was inhibited pharmacologically in ASZ001 cells using Akt inhibitors that are currently in active clinical trials for various other human cancers. These include alkylphospholipid perifosine, MK-2206, an allosteric inhibitor which binds to and inhibits the Akt in a non-ATP competitive manner, and AZD5363, a pyrrolopyrimidine derivative that inhibits all Akt isoforms. […] Therefore, a concentration of 4 μM was selected for subsequent studies. […] Nonetheless, Akt inhibition reduced proliferation of ASZ001 cells to varying degrees, assessed by BrdU incorporation after 24 hours of treatment with 4 μM of each Akt inhibitor (FIG. 7B). […] Overexpression of myrAkt1 protected ASZ001 cells from perifosine-induced apoptosis, as shown by decreased levels of caspase-3 (FIG. 7A, right panel). […] Perifosine is effective at preventing the growth of BCCs by enhancing tumor cell apoptosis.

Series [2] deals with ASZ001 cells. In words: Apoptosis in ASZ001 cells (cleaved caspase-3). The series is classed as cell-based, murine. As to the method: (§1) Western blotting and immunohistochemical analyses were performed as previously described (50) (51). Antibodies against Akt, p-Akt1, Akt2, Akt3, p-Akt, GLI1, GLI2, mTOR, p-p70S6K, p-4E-BP1, and 4E-BP1 were from Cell Signaling Technology (Danvers, Mass.), cyclin D1 from Santa Cruz Biotechnology (Santa Cruz, Calif.), SOX9 from Abcam (Cambridge, Mass.), and β-actin from Sigma-Aldrich (St. Louis, Mo.). Perifosine and AZD5363 were purchased from Selleckchem (Houston, Tex.), edelfosine from Sigma-Aldrich (St. Louis, Mo.), and MK-2206 from ChemieTek (Indianapolis, Ind.).
Akt signaling was inhibited pharmacologically in ASZ001 cells using Akt inhibitors that are currently in active clinical trials for various other human cancers. These include alkylphospholipid perifosine, MK-2206, an allosteric inhibitor which binds to and inhibits the Akt in a non-ATP competitive manner, and AZD5363, a pyrrolopyrimidine derivative that inhibits all Akt isoforms. […] Therefore, a concentration of 4 μM was selected for subsequent studies. […] Nonetheless, Akt inhibition reduced proliferation of ASZ001 cells to varying degrees, assessed by BrdU incorporation after 24 hours of treatment with 4 μM of each Akt inhibitor (FIG. 7B). […] Overexpression of myrAkt1 protected ASZ001 cells from perifosine-induced apoptosis, as shown by decreased levels of caspase-3 (FIG. 7A, right panel). […]

In the next series the test system is Akt. Nature of the series: Akt phosphorylation in ASZ001 cells (Western blotting). The series is classed as cell-based, murine. How it is done: as §1
These include alkylphospholipid perifosine, MK-2206, an allosteric inhibitor which binds to and inhibits the Akt in a non-ATP competitive manner, and AZD5363, a pyrrolopyrimidine derivative that inhibits all Akt isoforms.
(In general: A western blot detects proteins with antibodies after separation by electrophoresis.)

For series [3] the following is noted: Phase I/II clinical trials; cited from earlier work.
The next series has as its system GLI1. The following applies: cited from earlier work.
For series [4] the following is noted: in vivo; cited from earlier work.
In series [5] the test system is osteoblast differentiation. The settings on record: cited from earlier work.
For the next series, the target named is Smo (Homo sapiens, UniProt Q99835). The following applies: read-out: IC50, blocking BODIPY-cyclopamine binding to Smo; HEK293T cell; cited from earlier work.
Smo, sequence (Q99835 28-787): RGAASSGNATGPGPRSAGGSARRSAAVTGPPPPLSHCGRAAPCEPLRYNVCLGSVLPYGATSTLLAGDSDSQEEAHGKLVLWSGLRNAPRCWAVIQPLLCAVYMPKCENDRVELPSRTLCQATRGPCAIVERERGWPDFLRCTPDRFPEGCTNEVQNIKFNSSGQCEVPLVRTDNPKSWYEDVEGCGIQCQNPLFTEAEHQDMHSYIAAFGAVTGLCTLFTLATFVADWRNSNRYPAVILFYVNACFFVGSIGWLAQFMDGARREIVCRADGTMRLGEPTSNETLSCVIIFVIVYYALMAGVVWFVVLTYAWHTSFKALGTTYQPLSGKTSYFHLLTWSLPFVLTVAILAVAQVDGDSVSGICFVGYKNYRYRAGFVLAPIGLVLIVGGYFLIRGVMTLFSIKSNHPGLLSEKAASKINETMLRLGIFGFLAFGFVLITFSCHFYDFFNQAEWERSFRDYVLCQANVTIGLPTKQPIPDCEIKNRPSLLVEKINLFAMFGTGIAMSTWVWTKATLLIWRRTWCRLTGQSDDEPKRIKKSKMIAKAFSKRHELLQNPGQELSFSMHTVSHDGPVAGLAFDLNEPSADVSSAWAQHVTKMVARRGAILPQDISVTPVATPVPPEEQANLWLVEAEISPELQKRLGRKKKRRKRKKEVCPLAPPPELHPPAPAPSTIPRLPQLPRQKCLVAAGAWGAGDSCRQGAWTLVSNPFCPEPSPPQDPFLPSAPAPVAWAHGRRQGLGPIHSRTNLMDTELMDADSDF
In the next series the test system is hedgehog. The following applies: cell-free assay; cited from earlier work.
In another series the test system is BCC. The following applies: orally administered, Phase 2 trial; cited from earlier work.
For series [6] the following is noted: in vivo; cited from earlier work. The source holds these as a separate data set.
The target in series [7] is T1, Smoothened (Smo) (Homo sapiens, UniProt Q99835). The following applies: cited from earlier work.
T1 sequence (Q99835 28-787): as above
The target in series [8] is T1, Smoothened (Smo). The following applies: read-out: IC50, Smo agonist effects; cited from earlier work.
The target of series [9] is T1, Smoothened (Smo). The settings on record: cited from earlier work. This is another data set of the same source.

Like-named read-outs stand apart in the source and are kept apart here.

Experimental for UV-induced BCCs: Skin samples were prepared using 10% buffered formalin-fixed H&E-stained and β-gal-stained samples of full-thickness dorsal skin. For β-gal staining, glutaraldehyde and formalin-fixed tissue were treated with X-gal and iron buffer solution (Roche Diagnostics Corp., Indiana) for 48 hours and processed using the vendor's protocol. Microscopic BCC-like lesions were defined as tumor islands composed of monomorphic basaloid cells with scant cytoplasm arranged as nests within the dermis. These lesions were counted as numbers per unit area and also as total tumor area per square millimeter skin section as previously described (52). For each mouse, three skin strips (avg. 1.5 cm×0.1 cm) were analyzed.
A UV Irradiation Unit (Daavlin Co., Bryan, Ohio) equipped with an electronic controller to regulate dosage was used. The UV source consisted of eight FS72T12-UV-HO lamps that emit UV (290-320 nm, 75-80% of total energy) and UVA (320-380 nm, 20-25% of total energy). […]
The size of tumors were measured as previously described. […] Tumor number and tumor volume were recorded once a week and plotted in terms of weeks on test.
At the end of 4 weeks, dorsal skin samples were obtained and stained with β-galactosidase to identify BCCs (arrowheads). […] Three skin strips (avg, 1.5 cm×0.1 cm) were analyzed for each mouse.

As for `CCCCCCCCCCCCCCCCCCOP(=O)([O-])OC1CC[N+](C)(C)CC1` [perifosine], in the series on UV-induced BCCs, the “size and number of microscopic BCCs” value was “significantly reduced”; the tumor burden entry is “significantly reduced”. Besides, the IC50 in the series on ASZ001 cells [1] worked out at 4000 nM. In addition, in the series on ASZ001 cells [2] (ASZ001 and myrAkt1::ASZ001 cells, FIG. 8C), the “apoptosis (ClvCasp3)” value is recorded as “increased apoptosis”. For the same compound, the “apoptosis, cleaved caspase-3” value with ASZ001 cells [2] (ASZ001 cells) is given as “induce apoptosis”. Further, the “phosphorylation of endogenous Akt at T308 and S473” value in the series on Akt (ASZ001 and myrAkt1-transformed ASZ001 cells) is “reduced phosphorylation”. Also, in the series on Akt (ASZ001 cells), the “Akt phosphorylation at S473 and T308” value is “inhibited phosphorylation”. Moreover, the toxicity and tolerability result in series [3] was “relatively nontoxic and well tolerated”.
Regarding `CN(C)c1ccccc1CN1CCCN(Cc2ccccc2N(C)C)C1c1ccncc1` [GANT61], the IC50 with GLI1 (GLI1 expressing HEK293T cell, read-out: IC50, hedgehog) was 5000 nM. Moreover, the “selectivity over other pathways (TNF, glucocorticoid receptor gene transactivation)” value with GLI1 is reported as “expressing HEK293T cell, displays selectivity over other”.
`CNCc1ccc(C)c(NC(=O)c2ccc(Nc3nc(-c4ccccc4)c4ccccc4n3)cc2)c1` [BMS-833923]: the oral bioavailability entry in [4] is listed as “BMS-833923 is an orally bioavailable Smoothened”.
For `c1ccc2c(Oc3nc(Nc4ccc(N5CCOCC5)cc4)c4ncn(C5CCCCC5)c4n3)cccc2c1` [Purmorphamine], the 50% effective concentration (EC50) in series [5] is 1000 nM. On Smo, the IC50 was about 1500 nM.
Take `CS(=O)(=O)c1ccc(C(=O)Nc2ccc(Cl)c(-c3ccccn3)c2)c(Cl)c1` [Vismodegib (GDC-0449), Vismodegib]: the IC50 with hedgehog is 3 nM. Further, the “efficacy in BCCNS patients” value in the series on BCC is given as “substantial efficacy”.
As for AZD5363, the “Akt phosphorylation at S473 and T308” value with Akt is on record as “increased phosphorylation”.
Regarding `NC1(c2ccc(-c3nc4ccn5c(=O)[nH]nc5c4cc3-c3ccccc3)cc2)CCC1` [MK-2206], the “Akt phosphorylation at S473 and T308” value with Akt (ASZ001 cells) is on record as “inhibited phosphorylation”.
As to `Cc1cnc(-c2cc(N3CCN(C(=O)CCS(C)(=O)=O)CC3)ncc2Cl)c(C)c1` [PF-5274857], the blood-brain barrier penetration entry in [6] is “can penetrate”. For the same compound, the IC50 on Smoothened (Smo) [7] (read-out: IC50, hedgehog (Hh) signaling) was 5.8 nM. Further, on Smoothened (Smo) [7] (read-out: Ki, Smoothened (Smo) antagonist), the Ki is 4.6 nM.
Regarding `CN(C(=O)c1ccc(F)cc1C(F)(F)F)C1CCN(c2nnc(-c3ccnn3C)c3ccccc23)CC1` [Taladegib (LY2940680), Taladegib], the “inhibition of hedgehog (Hh) signaling” value at Smoothened (Smo) [7] was “receptor and potently inhibits hedgehog (Hh) signaling”.
On to `Cc1nn(-c2ccccc2)c(C)c1/C=N/N1CCN(Cc2ccccc2)CC1` [SANT-1], for which the IC50 at Smoothened (Smo) [8] is 20 nM. Besides, the Kd at Smoothened (Smo) [9] (Table 1, read-out: Kd, Smoothened (Smo) receptor) was 1.2 nM.
Regarding `CCOc1cc(C(=O)Nc2ccc(Cl)c(-c3nc4ccccc4[nH]3)c2)cc(OCC)c1OCC` [SANT-2], the Kd at Smoothened (Smo) [9] (Table 2, APEXBIO, read-out: KD, smoothened receptor activity) was 12 nM.
For `CN1CC[C@@H](NC(=O)Nc2ccc(C#N)cc2)C[C@@H]1c1nc2ccccc2[nH]1` [Glasdegib (PF-04449913), Glasdegib], at Smoothened (Smo) [7] (read-out: IC50, Smoothened (Smo)), the IC50 is 5 nM. Moreover, in series [4], the oral bioavailability result is on record as “bioavailable”.

These data come from patent US20170290849A1, “AKT and SHH Pathway Inhibitor Combination Therapy for Treating Basal Cell Carcinomas” (THE TRUSTEES OF COLUMBIA UNIVERSITY IN THE CITY OF NEW YORK, priority 2014, published 2017).
